Earlier results in patent publication US7060729B2, “Composition and method for treating skin” (priority 2002, dated 2006).
Like-named read-outs stand apart in the source and are kept apart here.

Assays:
[1] = in vivo
[2] = topical application
H. pylori = conditions: Mayr-Kanhauser 2001
[3] = as stated in US 5,972,993

| Compound | erythema, dryness, and burning associated with rosacea [1] | physicians' rating of global improvement, azelaic acid versus metronidazole [1] | reducing the number of inflammatory lesions and associated signs and symptoms of rosacea [1] | telangiectasia [1] | inflammatory papule lesions and erythema [2] | pustules caused by rosacea [2] | telangiectasia [2] | eliminating H. pylori (H. pylori) | effect against skin redness, telangiectasia or flushing [3] | effect on papules and pustules of rosacea [3] |
| --- | --- | --- | --- | --- | --- | --- | --- | --- | --- | --- |
| O=C(O)CCCCCCCC(=O)O [azelaic acid, 1,7-heptanedicarboxylic acid] | effective | more favorably | equally effective | failed to effect | significantly reduce | not effective | did not produce any major improvement |  |  |  |
| CC[C@H]1OC(=O)[C@H](C)[C@@H](O[C@H]2C[C@@](C)(OC)[C@@H](O)[C@H](C)O2)[C@H](C)[C@@H](O[C@@H]2O[C@H](C)C[C@H](N(C)C)[C@H]2O)[C@](C)(OC)C[C@@H](C)C(=O)[C@H](C)[C@@H](O)[C@]1(C)O [clarithromycin] |  |  |  |  |  |  |  | effective |  |  |
| Cc1ncc([N+](=O)[O-])n1CCO [metronidazole, 2-methyl-5-nitro-1H-imidazole-1-ethanol] | effective |  | equally effective | failed to effect |  |  |  | effective | ineffective | have an effect |
